PMC6323428, “Elucidation of the Intestinal Absorption Mechanism of Loganin in the Human Intestinal Caco-2 Cell Model” (Evidence-based Complementary and Alternative Medicine : eCAM, 2018)
“Also recorded” adds a separate entry of the source.

Tests used:
MRP2 = tested on: T1, MRP2; assay: Loganin transport across Caco-2 monolayers with MRP2 inhibitor indomethacin; format: in vitro ADME, human; details: human, Caco-2, pH 7.4; with indomethacin 200 μM, loganin 20 μM, n = 3
T1 construct: MRP2 and MRP3 were the main apically and basolaterally localized MRPs of the Caco-2 cells; endogenous in cells; host or cells: Caco-2 monolayers
Description: (§1) Before the experiments, the human intestinal Caco-2 cell monolayers were washed twice with HBSS medium (pH 7.4). The transport experiments were conducted by adding the drug solutions (containing 1% DMSO) to either the apical (AP, 0.5 mL) or basolateral side (BL, 1.0 mL), while the receiving chamber contained the corresponding volume of blank HBSS medium. The monolayers were incubated at 37°C, and 50 μL samples were taken at 15, 30, 45, 60, 90, and 120 min from the acceptor compartment, and the volume was then immediately replaced with50 μL of fresh, prewarmed blank HBSS. TEER measurements for assessing the membrane integrity took place before and after the experiment. The samples were frozen immediately and stored below −80°C before analysis.
(§2) Several efflux and influx transporters were investigated for their effects on the transport flux of loganin. One hundred μM verapamil was added to evaluate the selectivity of P-glycoprotein (P-gp); inhibiting the efflux by multidrug resistance-associated proteins (MRPs) was undertaken by adding 100μM MK571, 50μM benzbromarone, and 200μM indomethacin [21–23]; 25 μM apigenin was used to investigate breast cancer resistance protein (BCRP); 50 μM sodium vanadate and cimetidine were used as Na^+/K^+pump and […] inhibitors.
(§3) UPLC-MS/MS data acquisition was performed using Analyst 1.5.2 and MultiQuant 2.1.1 software (Applied Biosystems). The data were analyzed by SPSS Software. The apparent permeability coefficient (Papp) was calculated according to Papp = (dQ/dt)/(A·C0)
(§4) where dQ/dt is the steady-state flux (nmol/s), A is the surface area of the insert (cm^2); C0 is the initial concentration. The efflux ratio (P) was determined by calculating the ratio of PappBA versus PappAB as in(1) P=PappBA/PappAB Statistical analysis was performed with analysis of variance (ANOVA) after confirmation of normal distributions.

P-glycoprotein (P-gp) [1] = molecular target: T2, P-glycoprotein (P-gp) (Homo sapiens, UniProt P08183); assay: Loganin transport across Caco-2 monolayers with P-gp inhibitor verapamil; format: in vitro ADME
T2 construct: endogenous in cells; host or cells: Caco-2 monolayers
T2 sequence (P08183 whole entry): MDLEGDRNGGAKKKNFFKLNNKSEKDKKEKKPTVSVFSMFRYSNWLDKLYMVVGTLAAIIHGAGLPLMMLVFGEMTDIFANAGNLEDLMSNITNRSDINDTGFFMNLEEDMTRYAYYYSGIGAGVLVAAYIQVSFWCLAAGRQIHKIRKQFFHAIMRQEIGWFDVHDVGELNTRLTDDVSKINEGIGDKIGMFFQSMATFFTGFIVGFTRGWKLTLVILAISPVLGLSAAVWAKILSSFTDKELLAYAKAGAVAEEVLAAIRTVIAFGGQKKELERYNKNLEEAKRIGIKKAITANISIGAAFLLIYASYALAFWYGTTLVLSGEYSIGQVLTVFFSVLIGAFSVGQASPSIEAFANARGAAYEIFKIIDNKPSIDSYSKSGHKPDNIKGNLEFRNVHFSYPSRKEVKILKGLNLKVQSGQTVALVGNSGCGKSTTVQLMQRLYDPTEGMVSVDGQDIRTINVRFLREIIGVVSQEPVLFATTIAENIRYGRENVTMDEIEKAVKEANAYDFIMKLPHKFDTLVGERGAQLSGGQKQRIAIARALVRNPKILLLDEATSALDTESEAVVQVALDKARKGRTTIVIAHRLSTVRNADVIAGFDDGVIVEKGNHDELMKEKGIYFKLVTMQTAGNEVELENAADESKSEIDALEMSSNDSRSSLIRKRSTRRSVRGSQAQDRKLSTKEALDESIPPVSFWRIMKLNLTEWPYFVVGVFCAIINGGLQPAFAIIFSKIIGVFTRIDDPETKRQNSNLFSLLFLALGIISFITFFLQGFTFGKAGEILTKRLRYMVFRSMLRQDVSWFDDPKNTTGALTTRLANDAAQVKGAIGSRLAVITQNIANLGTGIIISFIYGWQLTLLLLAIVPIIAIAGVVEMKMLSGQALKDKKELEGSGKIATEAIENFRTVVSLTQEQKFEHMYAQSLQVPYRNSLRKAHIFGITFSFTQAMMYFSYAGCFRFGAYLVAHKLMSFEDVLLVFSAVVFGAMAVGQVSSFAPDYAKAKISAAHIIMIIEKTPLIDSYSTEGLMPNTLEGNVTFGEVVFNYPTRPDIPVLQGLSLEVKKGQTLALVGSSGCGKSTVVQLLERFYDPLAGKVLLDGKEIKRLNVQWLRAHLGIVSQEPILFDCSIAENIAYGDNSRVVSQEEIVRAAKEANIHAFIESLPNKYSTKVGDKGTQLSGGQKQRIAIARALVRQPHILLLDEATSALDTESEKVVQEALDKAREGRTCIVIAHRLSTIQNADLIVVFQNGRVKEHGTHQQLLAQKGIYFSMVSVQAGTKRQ
Description: as §1, §2, §3, §4

P-glycoprotein (P-gp) [2] = tested on: T3, P-glycoprotein (P-gp); assay: as above; format: in vitro ADME, human; details: human, Caco-2, pH 7.4; with verapamil 100 μM, loganin 20 μM, n = 3
T3 construct: endogenous in cells; host or cells: Caco-2 monolayers
Description: as §1, §2, §3, §4

[3] = tested on: human intestinal Caco-2 cells; assay: MTT cytotoxicity (cell viability) assay; format: cell-based; details: for Survival Rates: n = 5, mean ± SD
Description: Cell viability was assessed using an MTT assay. Briefly, 0.1 mL of human intestinal Caco-2 cells was seeded onto 96-well plates at a density of 1×10^5 cells per well in a 96-well plate. The cells were grown in an atmosphere with 5% CO2 and 95% relative humidity over approximately 48 h. Subsequently, the culture medium was replaced with HBSS containing different concentrations of loganin (0.1-200 μM); the final concentration of dimethyl sulfoxide (DMSO) in HBSS remained at <1%. The negative control was HBSS containing 1% DMSO. […] Then, 0.2 mL of 0.5mg/mL MTT solution was added to each well and incubated for 4 h in dark. The medium was then removed, the MTT-formazan crystals were solubilized by incubating with 150 μL of DMSO with gentle shaking for 10 min, and absorbance was determined at 490 nm in a Multiskan Spectrum microplate reader (Thermo Labsystems, MA, USA). In each MTT assay, every sample was tested in five replicates and the viability of the nontreated control cells was arbitrarily defined as 100%.

[4] = Bidirectional transport across Caco-2 cell monolayers (concentration, time, pH, temperature; control without inhibitor); format: in vitro ADME, human; details: human; for Papp A→B at 60 min, 20 µM: Caco-2, pH 7.4, loganin 20 μM, AP to BL
Description: (§5) Cells were maintained in DMEM with 10% FBS, 1× nonessential amino acids, and 1× penicillin and streptomycin at 37°C with 5% CO2. Cells of passage 35-40 were used in this study to maintain relatively constant cellular phenotypes. The medium was replaced every 2-3 days during incubation. After reaching approximately 80% confluence, the cells were detached using 0.02% ethylenediaminetetraacetic acid (EDTA) and 0.05% trypsin at a density of 5.3×10^4 cells/cm^2 on a 60-mm plastic culture dish for the uptake experiment or a 12-mm polyester membrane insert in a 12-well plate for the permeation experiment. The media in the culture plates were changed every two days for the first week after seeding and replaced daily afterward. The integrity of the cell monolayers was examined by measuring the transepithelial electrical resistance (TEER) with a Millicell-ERS-electrode (Millipore Corp, Billerica, MA, USA). After 21-23 days, monolayers with a TEER value (TEER=[TEERtest- TEERbackground]×area) above 500Ωcm^2 were used during the transport experiments.
as §1
(§6) The loganin transport (20 μM) at 4°C and 37°C was evaluated in the AP to BL direction to investigate the effect of temperature. The effect of pH on the loganin transport (20 μM) in the AP to BL direction was studied using the following pH combinations for the HBSS in the acceptor/donor compartments: 6.0/7.4 and 7.4/7.4.
as §3, §4

[5] = tested on: human intestinal Caco-2 cell monolayers; assay: as above; format: in vitro ADME
Description: as §5, §1, §6, §3, §4

[6] = set-up: method as in PMID 35540372; details: rats; cited from earlier work
[7] = stated as well known, no reference given; cited from earlier work
[8] = Caco-2, pH 7.4, control, no inhibitor, loganin 20 μM, n = 3

COC(=O)C1=CO[C@@H](O[C@@H]2O[C@H](CO)[C@@H](O)[C@H](O)[C@H]2O)[C@@H]2[C@@H](C)[C@@H](O)C[C@H]12 [loganin, Loganin]
Papp A→B at 120 min, 20 μM (MRP2): 24.7 ± 4.8 ×10⁻⁶ cm/s
Papp B→A at 120 min, 20 μM (MRP2): 4.4 ± 1.1 ×10⁻⁶ cm/s
efflux ratio at 120 min, 20 μM (P-glycoprotein (P-gp) [1]; human, Caco-2, pH 7.4, with verapamil 100 μM, read-out: P (efflux ratio PappBA/PappAB)): 0.84
Substrate of P-gp (in words) (P-glycoprotein (P-gp) [1]; judged from verapamil vs control): not the substrate; also recorded: not a substrate
PappAB difference between verapamil and control groups (in words) (P-glycoprotein (P-gp) [1]; verapamil 100 μM): insignificant
PappAB (P-glycoprotein (P-gp) [1]; with verapamil 100 μM, loganin 20 μM, n = 3): 11.1±1.7 ×10^−6cm/s
Papp B→A at 120 min, 20 μM (P-glycoprotein (P-gp) [2]): 9.3 ± 1.7 ×10⁻⁶ cm/s
Survival Rates ([3]; loganin 0.1 μM, MTT): 107.66±10.9%
Survival Rates ([3]; loganin 1 μM, MTT): 108.73±25.4%
Survival Rates ([3]; loganin 5 μM, MTT): 106.57±8.3%
Survival Rates ([3]; loganin 10 μM, MTT): 106.22±10.9%
Survival Rates ([3]; loganin 50 μM, MTT): 103.45±3.3%
Survival Rates ([3]; loganin 100 μM, MTT): 101.45±6.5%
Inhibition of Caco-2 cells ([3]; loganin 200 μM, MTT): 4.67%
Survival Rates ([3]; loganin 200 μM, MTT): 95.33±5.3%
Toxicity to Caco-2 cells (in words) ([3]; loganin 0.1 to 100 μM, after 4 h exposure (so in the source)): nontoxic
Papp A→B at 60 min, 20 µM ([4]; 4°C): 7.12 ×10⁻⁶ cm/s
Papp A→B at 60 min, 20 µM ([4]; 37°C): 11.3 ×10⁻⁶ cm/s
Papp A→B at 120 min, 20 μM [4, 8]: 13 ± 0.7 ×10⁻⁶ cm/s
Papp B→A at 120 min, 20 μM [4, 8]: 11.7 ± 0.9 ×10⁻⁶ cm/s
efflux ratio at 120 min, 20 μM ([4]; Caco-2, pH 7.4, control, no inhibitor, loganin 20 μM, read-out: P (efflux ratio PappBA/PappAB)): 0.9
Papp A→B at 120 min ([4]; Caco-2, pH 7.4, range over 5, 20, 40 and 80 μM loganin, read-out: Absorptive permeability PappAB (AP to BL)): 12.2 to 14.8 ×10⁻⁶ cm/s
Papp B→A at 120 min ([4]; Caco-2, pH 7.4, range over 5, 20, 40 and 80 μM loganin, read-out: Secretory permeability PappBA (BL to AP)): 11.1 to 13 ×10⁻⁶ cm/s
Intestinal absorption indicated by Papp values (in words) ([5]; classification by Papp > 1×10^−5cm/s = high absorption (>70%)): good intestinal absorption
PappAB at pH 7.4 compared with pH 6 (in words) ([5]; loganin 20 μM, AP to BL, 60 min, p<0.05): significantly higher
Oral bioavailability (in words) [6]: low
Water solubility (in words) [7]: low
